Our source for the GI50 and TGI values is PubChem BioAssay (NCI).

Where “and” joins values, the source holds several entries; their conditions need not be identical. Equal entries are not always repeated.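 Tested at 5 concentrations; 48 h exposure; 96-well plates; endpoints linearly interpolated, else capped at highest concentration. GI50 is the concentration that inhibits growth by half. At the TGI there is no net growth.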

Some test systems named below: K-562 leukemia; OVCAR-4 ovarian; SN12C renal; T-47D breast; CCRF-CEM leukemia; UACC-62 melanoma; UACC-257 melanoma; U251 CNS; HCT-116 colon; NCI-H23 lung.
Experiment in all cases: DTP human tumour cell line panel, 48 h

As to `COc1cc([N+](=O)[O-])c(OC)cc1-c1nc2sc(C)cn2c1/C(N)=N/C(=N)N`, the GI50 with K-562 leukemia was 2.59 µM; in the assay with OVCAR-4 ovarian, over 100 µM; with SN12C renal it was 18.9 µM; with T-47D breast, over 100 µM; in the assay on CCRF-CEM leukemia it was 18 µM; in the assay with UACC-62 melanoma, 23.8 µM. Further, the GI50 in the assay with UACC-257 melanoma is 18.4 µM; in the assay with U251 CNS, 6.49 µM; in the assay on HCT-116 colon it was over 100 µM; in the assay on NCI-H23 lung, 89.6 µM. Moreover, the TGI with K-562 leukemia is over 100 µM; in the assay on OVCAR-4 ovarian, over 100 µM; with SN12C renal it was 49.1 µM; with T-47D breast it was over 100 µM; with CCRF-CEM leukemia, over 100 µM; in the assay with UACC-62 melanoma it was 52.4 µM. Further, the TGI in the assay with UACC-257 melanoma is 67 µM; in the assay on U251 CNS, over 100 µM; in the assay on HCT-116 colon, over 100 µM; in the assay with NCI-H23 lung, over 100 µM.

As for `O=C(O)c1ccc(C(O)(c2ccccc2)c2ccccc2)cc1`, the TGI in the assay on K-562 leukemia, in the assay on OVCAR-4 ovarian, in the assay on SN12C renal, with T-47D breast, with CCRF-CEM leukemia and with UACC-62 melanoma was over 100 µM throughout. Moreover, the TGI in the assay with UACC-257 melanoma, in the assay on U251 CNS, in the assay with HCT-116 colon and with NCI-H23 lung was over 100 µM each time.

Turning to `Cc1cnc2oc3ccc(O)cc3c2c1-c1ccccc1`, the GI50 in the assay with K-562 leukemia is over 100 µM; in the assay on OVCAR-4 ovarian, over 100 µM; with SN12C renal, 10 µM; in the assay on T-47D breast, 3.63 µM; in the assay on CCRF-CEM leukemia, over 100 µM; in the assay with UACC-62 melanoma it was 6.02 µM. Further, the GI50 in the assay with UACC-257 melanoma was over 100 µM; with U251 CNS, 17.9 µM; in the assay on HCT-116 colon, over 100 µM; in the assay on NCI-H23 lung, 21.6 µM. The TGI was over 100 µM with K-562 leukemia; over 100 µM in the assay with OVCAR-4 ovarian; 47.3 µM in the assay on SN12C renal; over 100 µM in the assay on T-47D breast; over 100 µM in the assay with CCRF-CEM leukemia; 50.8 µM in the assay with UACC-62 melanoma. Further, the TGI in the assay with UACC-257 melanoma was over 100 µM; in the assay on U251 CNS it was 51 µM; with HCT-116 colon, over 100 µM; with NCI-H23 lung, over 100 µM.

Turning to `CCc1cnn2c(NCc3ccc[n+]([O-])c3)cc(N3CCCC[C@H]3CCO)nc12`, the GI50 is 0.0155 µM and 0.00449 µM in the assay on K-562 leukemia; < 0.0105 µM and 0.00798 µM in the assay with OVCAR-4 ovarian; < 0.01 µM and 0.00406 µM in the assay with SN12C renal; < 0.01 µM and 0.00485 µM in the assay with T-47D breast; < 0.01 µM and 0.00331 µM with CCRF-CEM leukemia; < 0.01 µM and 0.00345 µM in the assay on UACC-62 melanoma. For the same compound, the 50% growth inhibitory concentration (GI50) with UACC-257 melanoma was < 0.0135 µM and 0.0074 µM; with U251 CNS, < 0.01 µM and 0.00368 µM; in the assay on HCT-116 colon it was < 0.01 µM and 0.00345 µM; in the assay with NCI-H23 lung, < 0.01 µM and 0.00416 µM. In addition, the TGI in the assay on K-562 leukemia is over 100 µM; in the assay on SN12C renal, over 100 µM; in the assay with T-47D breast, 0.0777 µM; in the assay with UACC-62 melanoma, 0.0307 µM and 0.0168 µM; in the assay with U251 CNS it was over 100 µM; in the assay on HCT-116 colon it was over 100 µM. In addition, the TGI in the assay on NCI-H23 lung was 0.0174 µM and 0.0214 µM.

For `Cn1cc(C2=C(c3cn(-c4ccccc4)c4ccccc34)C(=O)NC2=O)c2ccccc21`, the GI50 in the assay with K-562 leukemia was 8.75 µM; with OVCAR-4 ovarian it was 10.4 µM; with SN12C renal, 15.8 µM; in the assay with T-47D breast, 7.53 µM; in the assay on CCRF-CEM leukemia, 15.2 µM; with UACC-62 melanoma, 16.3 µM. Further, the GI50 is over 25 µM with UACC-257 melanoma, 11.5 µM with U251 CNS, 11 µM in the assay on HCT-116 colon and 18.8 µM with NCI-H23 lung. Also, the TGI with K-562 leukemia, in the assay on OVCAR-4 ovarian, with SN12C renal, in the assay on T-47D breast, with CCRF-CEM leukemia and in the assay on UACC-62 melanoma was over 25 µM each time. Also, the TGI in the assay on UACC-257 melanoma, with U251 CNS, in the assay on HCT-116 colon and in the assay on NCI-H23 lung was over 25 µM throughout.

For the compound `COc1ccc(CCN(CC(=O)N(CC(N)=O)C2CCC[C@@H]2OCc2ccccc2)C(=O)CN(C(=O)CN(CCc2ccc(Cl)cc2)C(=O)CN(C(=O)CN(C)Cc2ccccc2F)[C@H](C)C2CCCCC2)[C@H](C)C2CCCCC2)cc1OC` (stereo not given in full), the GI50 in the assay on K-562 leukemia was 1.61 µM; in the assay with OVCAR-4 ovarian, 1.95 µM; in the assay with SN12C renal it was 2.13 µM; in the assay with T-47D breast, 1.43 µM; with CCRF-CEM leukemia, 1.66 µM; with UACC-62 melanoma, 1.42 µM. Besides, the GI50 is 1.09 µM in the assay on UACC-257 melanoma, 1.98 µM with U251 CNS, 1.6 µM in the assay on HCT-116 colon and 3.26 µM in the assay on NCI-H23 lung. The TGI in the assay on K-562 leukemia is over 50 µM; in the assay on OVCAR-4 ovarian, over 50 µM; in the assay on SN12C renal, over 50 µM; in the assay with T-47D breast, over 50 µM; in the assay with CCRF-CEM leukemia, 15.1 µM; in the assay on UACC-62 melanoma it was over 50 µM. The concentration for total growth inhibition (TGI) in the assay on UACC-257 melanoma was 2.68 µM; in the assay on U251 CNS it was 17.7 µM; with HCT-116 colon, over 50 µM; in the assay with NCI-H23 lung, over 50 µM.

Take `COCCOC1=CC(=O)c2c(O)ccc(O)c2C1=O`: the GI50 in the assay on K-562 leukemia was 1.4 µM; with OVCAR-4 ovarian it was 1.61 µM; with SN12C renal it was 1.46 µM; with CCRF-CEM leukemia, 1.92 µM; in the assay with UACC-62 melanoma, 1.62 µM; with UACC-257 melanoma it was 0.626 µM. The results for the GI50 in the assay with HCT-116 colon and in the assay on NCI-H23 lung were 1.29 µM and 1.44 µM, respectively. In addition, the TGI is 5.77 µM and 3.57 µM in the assay on K-562 leukemia; 3.3 µM and 2.97 µM with OVCAR-4 ovarian; 3.03 µM and 2.83 µM in the assay with SN12C renal; 4.83 µM with T-47D breast; 7.01 µM and 4.31 µM in the assay with CCRF-CEM leukemia; 3.74 µM and 3.58 µM in the assay with UACC-62 melanoma. The TGI was 0.409 µM and 2.06 µM in the assay on UACC-257 melanoma; 3.55 µM and 3.54 µM with U251 CNS; 1 µM and 2.64 µM in the assay on HCT-116 colon; 2.43 µM and 3.34 µM in the assay with NCI-H23 lung.
